Values quoted from earlier work, collected in US10471178B2, “Implantable medical devices with increased immune tolerance, and methods for making and implanting” (AMPIO PHARMACEUTICALS, INC., priority 2011, dated 2019).

Test system: memory but not naive human T lymphocytes
Conditions: memory vs naive human T lymphocytes

C[C@@H]1NC(=O)[C@H](CC(=O)O)NC1=O [DA-DKP, Aspartate, Alanine-Diketopiperazine]
immunomodulatory effect on human T lymphocytes: immunomodulatory for memory but not naive human T lymphocytes
